Columns and labels:
Male Sprague-Dawley rats = assay: Rat forced swim test, immobility frequency; type: in vivo; details: 3 and 30 mg/kg, i.p. at 23.5, 16 and 0.5 hours prior; 5-minute swim test
Protocol: Male Sprague-Dawley rats were placed individually in clear acrylic swim chambers (40 cm height×20.3 cm diameter) filled to 16 cm for a 15-minute pre-swim session on day 1 and filled to 30 cm for a 5-minute swim test session 24 hours later. Rats (n=10 per treatment group) were administered compound 2-1 (3, 10, 30 mg/kg, i.p., 1 mL/kg, based on weight of the free base) or vehicle (40% (w/v) 2-HPBCD in water, i.p.) at 23.5, 16 and 0.5 hours prior to the swim test. The rapid-acting antidepressant, ketamine (10 mg/kg, i.p.), was included in the study as a positive control condition and injected once 24 hours prior to the swim test.

Male WKY rats = assay: Confirmatory 30 mg/kg sleep, locomotor, body temperature and qEEG study in WKY rats; type: in vivo, rat; details: 30 mg/kg IP
Protocol: The aim of the current study was to confirm the effects of compound 2-2 (30 mg/kg) on sleep-wake behavior and EEG brain oscillatory power in an independent cohort of male Wistar Kyoto rats. The study was carried out similarly to Examples 7 and 9 with differences noted below. Male WKY rats (n=8, 323-352 g at the start of dosing) were housed in groups of 2-3 animals per cage with standard housing conditions.

[1] = test system: primary cortical rat neurons; assay: Synaptogenesis assay in primary cortical rat neurons; type: cell-based; details: 1 μM (highest concentration), DIV1-DIV10
Protocol: Pregnant rats for this study were purchased from a commercial breeder. Primary cortical neurons from E17/E18 rat pups were isolated and seeded in 96-well plates. Cells were treated with compound 2-2, FGF (Reference item) or vehicle. After incubation with the respective treatment, cortical neurons were stained for synapsin and tubulin using immunofluorescence.
Stained cells were imaged with the Cytation 5 Multimode reader. From each well, 9 images were taken at 10× magnification. Digital images from cortical neurons were analyzed for the following parameter using a software-supported automatic quantification method: Number of synapsin positive objects. Analysis was performed using Gen5 software. The experiment was run in n=10 technical replicates per condition. Vehicle control and FGF were included on each plate totaling n=20 technical replicates.
Primary cortical neurons were prepared from timed pregnant Spargue Dawley rats at E17/E18. Animals were sacrificed (see section 3.3.1) and embryos were dissected in Calcium and Magnesium free Hanks Balanced Salt Solution (CMF-HBSS) containing 15 mM HEPES and 10 mM NaHCO3, pH 7.2. Embryos were decapitated, skin and skull gently removed and hemispheres were separated. After removing meninges and brain stem, the cortices were isolated, chopped with a sterile razor blade in Chop solution (Hibernate-E without Calcium containing 2% B-27) and digested in 2 mg/mL papain (Worthington) dissolved in Hibernate-E without Calcium for 30 minutes (±5 min) at 30° C. The cortices of the embryos from the two rats were pooled and processed together.
Cortices were triturated for 10-15 times with a fire-polished silanized Pasteur pipette in Hibernate-E without Calcium containing 2% B-27, 0.01% DNaseI, 1 mg/mL BSA, and 1 mg/mL Ovomucoid Inhibitor. Undispersed pieces were allowed to settle by gravity for 3 min and the supernatant was centrifuged for 3 min at 228 g. […]
Cells were counted in a hemacytometer and seeded in nutrition medium on poly-D-lysine pre-coated 96-well plates at a density of 1.5×10^4 cells/well. […]

5-HT2A receptor = 5-HT2A receptor (Mus musculus, UniProt P35363); assay: 5-HT2A receptor binding in mouse frontal cortical tissue
Chain of 5-HT2A receptor (P35363 whole entry): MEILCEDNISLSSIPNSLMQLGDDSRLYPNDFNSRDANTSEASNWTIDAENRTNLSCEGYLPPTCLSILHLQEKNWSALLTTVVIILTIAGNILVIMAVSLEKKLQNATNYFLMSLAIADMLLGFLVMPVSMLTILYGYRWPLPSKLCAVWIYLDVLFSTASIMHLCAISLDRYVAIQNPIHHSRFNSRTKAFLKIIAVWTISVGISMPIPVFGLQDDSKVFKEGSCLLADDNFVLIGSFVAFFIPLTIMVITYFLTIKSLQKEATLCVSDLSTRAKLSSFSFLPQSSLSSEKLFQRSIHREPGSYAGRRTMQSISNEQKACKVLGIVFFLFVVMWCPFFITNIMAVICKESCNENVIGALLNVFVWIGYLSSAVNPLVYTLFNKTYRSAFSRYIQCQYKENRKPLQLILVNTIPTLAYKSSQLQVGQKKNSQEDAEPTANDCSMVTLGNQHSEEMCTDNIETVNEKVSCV

**Q.** For `COc1ccc(OC)c(CCNCc2cc(C)cc(Cl)c2)c1` [Compound 2-1, N-(3-chloro-5-methylbenzyl)-2-(2,5-dimethoxyphenyl)ethan-1-amine], which “frequency of immobility compared to vehicle” value (Male Sprague-Dawley rats) is on record?
**A.** significantly decreased

**Q.** Which results are given for `COc1ccc(OC)c(CCNCc2cc(C)cc(F)c2)c1` [Compound 2-2, 2-(2,5-dimethoxyphenyl)-N-(3-fluoro-5-methylbenzyl)ethan-1-amine]?
**A.** NREM sleep latency (Male WKY rats): no significant effect; body temperature (Male WKY rats): transiently reduced; locomotion (Male WKY rats): did not affect; synaptogenesis compared to VC (synapsin positive objects normalized to tubulin III area) [1]: did not have any significant effect; IC50 (5-HT2A receptor): 0.0208 µM; Ki (5-HT2A receptor; Ki, Mean (Mouse), mouse frontal cortical tissue): 0.0096 µM
